Measured values reported in ChEMBL document CHEMBL5113434, “Discovery of novel Thieno[2,3-d]imidazole derivatives as agonists of human STING for antitumor immunotherapy using systemic administration” (Eur J Med Chem, 2022).
Activity calls are given as the source filed them. The rule behind the calls is not given here.

Key:
[1] = Toxicity in BALB/c mouse xenografted with 4T1 cells assessed as body weight loss at 10 to 20 mg/kg, iv administered on day 1,4,7 and measured for 20 days; type: organism-based; settings: in vivo, 480 h, dose 10-20 mg/kg, time 20 day
[2] = target: T1, Stimulator of interferon genes protein (Homo sapiens, UniProt Q86WV6); assay: Agonist activity at STING in human THP1-Dual cells assessed as fold change in ISG activation at 10 uM incubated for 24 hrs by Quanti-luc reagent based assay relative to control; type: cell-based; settings: filed as agonist
Target sequence in this assay (Q86WV6 whole entry): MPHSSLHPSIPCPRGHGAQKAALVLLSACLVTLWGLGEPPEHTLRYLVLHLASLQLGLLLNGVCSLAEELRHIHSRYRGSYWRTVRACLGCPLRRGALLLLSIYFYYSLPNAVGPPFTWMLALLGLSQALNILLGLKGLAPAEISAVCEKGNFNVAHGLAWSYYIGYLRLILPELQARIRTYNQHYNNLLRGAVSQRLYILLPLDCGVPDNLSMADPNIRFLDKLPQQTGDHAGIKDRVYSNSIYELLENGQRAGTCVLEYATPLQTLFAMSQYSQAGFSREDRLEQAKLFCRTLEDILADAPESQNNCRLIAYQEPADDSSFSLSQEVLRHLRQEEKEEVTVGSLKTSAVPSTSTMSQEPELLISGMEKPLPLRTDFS

[3] = target: T2, Stimulator of interferon genes protein (Mus musculus) (UniProt Q3TBT3); assay: Agonist activity at STING in mouse RAW-Lucia ISG cells assessed as fold change in ISG activation at 50 uM incubated for 24 hrs by Quanti-luc reagent based assay relative to control; type: cell-based; settings: filed as agonist
T2 sequence (whole entry): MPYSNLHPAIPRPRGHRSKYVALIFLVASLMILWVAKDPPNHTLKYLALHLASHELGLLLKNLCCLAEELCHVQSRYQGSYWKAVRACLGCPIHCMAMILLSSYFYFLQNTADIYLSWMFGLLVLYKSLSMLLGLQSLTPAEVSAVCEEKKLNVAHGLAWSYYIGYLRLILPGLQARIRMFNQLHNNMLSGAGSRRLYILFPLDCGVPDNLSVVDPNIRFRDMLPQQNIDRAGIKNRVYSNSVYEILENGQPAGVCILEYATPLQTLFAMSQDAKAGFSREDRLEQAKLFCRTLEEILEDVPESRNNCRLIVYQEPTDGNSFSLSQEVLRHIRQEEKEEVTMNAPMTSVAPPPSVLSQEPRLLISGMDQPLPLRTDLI

[4] = target: T1, Stimulator of interferon genes protein; assay: Agonist activity at STING in human THP1-Dual cells assessed as ISG activation incubated for 24 hrs by Quanti-luc reagent based assay; type: cell-based
Target sequence in this assay (Q86WV6 whole entry): as the sequence (Q86WV6 whole entry) above

[5] = target: T3, Stimulator of interferon genes protein (Mus musculus, UniProt Q3TBT3); assay: Agonist activity at STING in mouse RAW-Lucia ISG cells assessed as ISG activation incubated for 24 hrs by Quanti-luc reagent based assay; type: cell-based
T3 sequence (Q3TBT3 whole entry): T2 sequence (whole entry)

[6] = test system: Stimulator of interferon genes protein (Homo sapiens), Q86WV6 [UNDEFINED MUTATION]; assay: Binding affinity to human STING R232 mutant assessed as thermal stability by measuring change in melting temperature by differential scanning fluorimetry; settings: filed as agonist
[7] = test system: Stimulator of interferon genes protein (Homo sapiens), Q86WV6 [R293Q]; assay: Binding affinity to human STING 293Q mutant assessed as thermal stability by measuring change in melting temperature by differential scanning fluorimetry; settings: filed as agonist
[8] = test system: Stimulator of interferon genes protein (Homo sapiens), Q86WV6 [G230A,R293Q]; assay: Binding affinity to human STING AQ mutant assessed as thermal stability by measuring change in melting temperature by differential scanning fluorimetry; settings: filed as agonist
Homo sapiens = species on record: Homo sapiens; assay: Binding affinity to human STING H232 mutant assessed as thermal stability by measuring change in melting temperature by differential scanning fluorimetry; settings: filed as agonist
Mus musculus = species on record: Mus musculus; assay: Binding affinity to mouse STING R231 mutant assessed as thermal stability by measuring change in melting temperature by differential scanning fluorimetry; settings: filed as agonist
[9] = target: T1, Stimulator of interferon genes protein; assay: Binding affinity to His6-tagged human wild type STING R232 variant by homogeneous time-resolved fluorescence assay
Target sequence in this assay (Q86WV6 whole entry, looked up, change not shown): as the sequence (Q86WV6 whole entry) above

[10] = Half life in BALB/c mouse at 1 mg/kg, iv measured up to 24 hrs by UPLC-MS/MS analysis; type: ADME, organism-based; settings: in vivo
[11] = AUClast in BALB/c mouse at 1 mg/kg, iv measured up to 24 hrs by UPLC-MS/MS analysis; type: ADME, organism-based; set-up: time < 24 hrs, dose 1 mg/kg, route iv; settings: in vivo
[12] = Observed AUC infinity in BALB/c mouse at 1 mg/kg, iv measured up to 24 hrs by UPLC-MS/MS analysis; type: ADME, organism-based; set-up: dose 1 mg/kg, time < 24 hrs, route iv; settings: in vivo
[13] = Observed clearance in BALB/c mouse at 1 mg/kg, iv measured up to 24 hrs by UPLC-MS/MS analysis; type: ADME, organism-based; settings: in vivo
[14] = Observed volume of distribution at steady state in BALB/c mouse at 1 mg/kg, iv measured up to 24 hrs by UPLC-MS/MS analysis; type: ADME, organism-based; settings: in vivo, read-out: Vdss
[15] = target: T1, Stimulator of interferon genes protein; assay: Agonist activity at human STING in human THP1-Dual cells assessed as activation of ISG signaling pathway measured after 24 hrs by Quanti-luc reagent based assay; type: cell-based; settings: filed as agonist, dose 0.0001-1 µM, DDE = dose-dependent effect
Target sequence in this assay (Q86WV6 whole entry): as the sequence (Q86WV6 whole entry) above

[16] = target: T1, Stimulator of interferon genes protein; assay: Agonist activity at human STING in human THP1-Dual cells assessed as activation of NF-kappB signaling pathway measured after 24 hrs by Quanti-luc reagent based assay; type: cell-based; settings: filed as agonist, dose 0.0001-1 µM, DDE = dose-dependent effect
Target sequence in this assay (Q86WV6 whole entry): as the sequence (Q86WV6 whole entry) above

[17] = target: T1, Stimulator of interferon genes protein; assay: Activation of STING pathway in human THP1-Dual cells assessed as increase in TBK1 phosphorylation at 0.01 to 1 uM measured for 4 hrs immunoblotting analysis; type: cell-based; settings: filed as activator, dose 0.01-1 µM
Target sequence in this assay (Q86WV6 whole entry): as the sequence (Q86WV6 whole entry) above

[18] = target: T1, Stimulator of interferon genes protein; assay: Activation of STING pathway in human THP1-Dual cells assessed as increase in IRF3 phosphorylation at 0.01 to 1 uM measured for 4 hrs by immunoblotting analysis; type: cell-based; settings: filed as activator, dose 0.01-1 µM
Target sequence in this assay (Q86WV6 whole entry): as the sequence (Q86WV6 whole entry) above

[19] = target: T1, Stimulator of interferon genes protein; assay: Activation of STING pathway in human THP1-Dual cells assessed as increase in IFNbeta expression level at 0.01 to 1 uM measured for 24 hrs by chemiluminescence based analysis; type: cell-based; settings: filed as activator, dose 0.01-1 µM
[20] = target: T1, Stimulator of interferon genes protein; assay: Activation of STING pathway in human THP1-Dual cells assessed as increase in IP-10 expression level at 0.01 to 1 uM measured for 24 hrs by chemiluminescence based analysis; type: cell-based; settings: filed as activator, dose 0.01-1 µM
[21] = target: T1, Stimulator of interferon genes protein; assay: Activation of STING pathway in human 293T-Dual hSTING-H232 cells assessed as increase in IFNbeta expression level measured for 24 hrs by SEAP reporter based Quanti-luc assay; type: cell-based; settings: filed as activator, dose 0.01-1 µM, DDE = dose-dependent effect
[22] = target: T1, Stimulator of interferon genes protein; assay: Activation of STING pathway in human 293T-Dual hSTING-H232 cells assessed as increase in ISG expression level measured for 24 hrs by SEAP reporter based Quanti-luc assay; type: cell-based; settings: filed as activator, dose 0.01-1 µM, DDE = dose-dependent effect
[23] = target: T1, Stimulator of interferon genes protein; assay: Activation of STING pathway in human 293T-Dual hSTING-R232 cells assessed as increase in IFNbeta expression level measured for 24 hrs by SEAP reporter based Quanti-luc assay; type: cell-based; settings: filed as activator, dose 0.01-1 µM, DDE = dose-dependent effect
[24] = target: T1, Stimulator of interferon genes protein; assay: Activation of STING pathway in human 293T-Dual hSTING-R232 cells assessed as increase in ISG expression level measured for 24 hrs by SEAP reporter based Quanti-luc assay; type: cell-based; settings: filed as activator, dose 0.01-1 µM, DDE = dose-dependent effect
[25] = target: T2, Stimulator of interferon genes protein (Mus musculus); assay: Activation of STING pathway in mouse RAW-Lucia ISG cells assessed as increase in ISG expression level at 12.5 to 50 uM measured for 24 hrs by Quanti-luc reagent based assay; type: cell-based; settings: filed as activator, dose 12.5-50 µM
4T1 [26] = assay: Antitumour activity against mouse 4T1 cells implanted in BALB/c mouse assessed as tumor growth inhibition at 10 mg/kg, iv administered on day 1,4,7 and measured for 20 days relative to control; type: functional; settings: 4T1, 480 h, time 20 day, read-out: TGI
4T1 [27] = assay: Antitumour activity against mouse 4T1 cells implanted in BALB/c mouse assessed as tumor growth inhibition at 20 mg/kg, iv administered on day 1,4,7 and measured for 20 days relative to control; type: functional; settings: 4T1, 480 h, time 20 day, read-out: TGI
CT26 [28] = assay: Antitumour activity against mouse CT26 cells implanted in BALB/c mouse assessed as suppression of tumor growth at 10 mg/kg, iv administered on day 1,4,7 and measured for 20 days; type: functional, organism-based; settings: time 20.0 day
CT26 [29] = assay: Antitumour activity against mouse CT26 cells implanted in BALB/c mouse assessed as suppression of tumor growth at 5 mg/kg, IT administered on day 1,4,7 and measured for 20 days; type: functional, organism-based; settings: time 20.0 day
CT26 [30] = assay: Antitumor immunity against mouse CT26 cells implanted in BALB/c mouse assessed as increase in IP-10 level in plasma at 10 mg/kg, iv administered on day 1,4,7 for 20 days and measured 6 hrs post last dose; type: functional, organism-based; settings: time 20.0 day
CT26 [31] = assay: Antitumor immunity against mouse CT26 cells implanted in BALB/c mouse assessed as increase in IFN-beta level in plasma at 10 mg/kg, iv administered on day 1,4,7 for 20 days and measured 6 hrs post last dose; type: functional, organism-based; settings: time 20.0 day
CT26 [32] = assay: Antitumor immunity against mouse CT26 cells implanted in BALB/c mouse assessed as increase in IP-10 level in plasma at 5 mg/kg, IT administered on day 1,4,7 for 20 days and measured 6 hrs post last dose; type: functional, organism-based; settings: time 20.0 day
CT26 [33] = assay: Antitumor immunity against mouse CT26 cells implanted in BALB/c mouse assessed as increase in IFN-beta level in plasma at 5 mg/kg, IT administered on day 1,4,7 for 20 days and measured 6 hrs post last dose; type: functional, organism-based; settings: time 20.0 day

Sequence of Stimulator of interferon genes protein (Homo sapiens), Q86WV6 [UNDEFINED MUTATION] (Q86WV6 whole entry, looked up, stated change not applied): as the sequence (Q86WV6 whole entry) above
Sequence of Stimulator of interferon genes protein (Homo sapiens), Q86WV6 [G230A,R293Q] (Q86WV6 whole entry G230A/R293Q): as the sequence (Q86WV6 whole entry) above, with G230A, R293Q counted along it
Sequence of Stimulator of interferon genes protein (Homo sapiens), Q86WV6 [R293Q] (Q86WV6 whole entry R293Q): as the sequence (Q86WV6 whole entry) above, with R293Q counted along it

CCn1nc(C)cc1C(=O)Nc1nc2cc(C(N)=O)sc2n1C/C=C/Cn1c(NC(=O)c2cc(C)nn2CC)nc2cc(C(N)=O)cc(OCCCN3CCOCC3)c21
Activity [1]: Non-Toxic
fold change (FC) [2]: 145
fold change (FC) [3]: 20.7
EC50 [4]: 1.2 nM
EC50 [5]: 32800 nM
ΔTm [6]: 6.6 °C
ΔTm [7]: 11.1 °C
ΔTm [8]: 12.4 °C
ΔTm (Homo sapiens): 12.8 °C
ΔTm (Mus musculus): 13.3 °C
IC50 [9]: 0.6 nM
half-life [10]: 1.62 h
AUC(0-t) at 24 h [11]: 701 ng·h/mL
AUC(0-inf) [12]: 711 ng·h/mL
clearance [13]: 26.3 mL/min/kg
Vd [14]: 1.52 L/kg
Activity [15]: Dde
Activity [16]: Dde
Activity [17]: Active
Activity [18]: Active
Activity [19]: Active
Activity [20]: Active
Activity [21]: Dde
Activity [22]: Dde
Activity [23]: Dde
Activity [24]: Dde
Activity [25]: Active
inhibition in vivo at 10 mg/kg (4T1 [26]): 61%
inhibition in vivo at 20 mg/kg (4T1 [27]): 74%
Activity (CT26 [28]): Active
Activity (CT26 [29]): Active
Activity (CT26 [30]): Active
Activity (CT26 [31]): Active
Activity (CT26 [32]): Active
Activity (CT26 [33]): Active
